Molecular target: T1, human cannabinoid receptor 2 (CB2) (Homo sapiens, UniProt P34972)
T1 construct: expressed in transfected cells
Test: CB2 in vitro assays on CHO cell membranes ([3H]-CP55940 ligand binding / GTPγS binding), Ki by Cheng-Prusoff
Details: membranes of CHO cells stably expressing human CB2; EC50 converted by Cheng-Prusoff
Method: Homogenized membranes are prepared from CHO cell clones stably expressing a human cannabinoid receptor 1 (CB1) or human cannabinoid receptor 2 (CB2). Cells are grown and scrapped from 15 cm tissue culture plates, and then subsequently centrifuged down. Cells are washed once with cold PBS, and resuspended in <20 ml of Buffer A (20 mM HEPES, pH 7.4, 10 mM EDTA, EDTA-free complete protease inhibitor cocktail [1 tablet/25 ml]). The cell suspension is homogenized on ice, using a Polytron homogenizer at 25000 rpm at three intervals of 15 seconds each. The homogenate is first centrifuged at 2000 rpm on a tabletop low speed centrifuge for 10 minutes. The supernatant, after passing through a cell strainer, is then centrifuged at 50,000×g for 25 minutes at 4° C. The pellet is resuspended into buffer B (15% glycerol, 20 mM HEPES, pH 7.4, 0.1 mM EDTA, EDTA-free complete protease inhibitor cocktail [1 tablet/10 ml]). Protein concentration of the prep is determined using the BCA Protein Assay kit using BSA as standard. The membranes are aliquoted and kept frozen at −80° C.
[^3H]-CP55940 ligand binding assay: Solutions of test compounds ranging from 100 μM to 0.01 nM are prepared in DMSO. The desired amount of membrane prep is diluted with ice-cold assay buffer (50 mM Tris-HCl, 2.5 mM EDTA, 5 mM MgCl2, 0.05% BSA, pH 7.4) and vortexed well. […]

T1 sequence (P34972 whole entry): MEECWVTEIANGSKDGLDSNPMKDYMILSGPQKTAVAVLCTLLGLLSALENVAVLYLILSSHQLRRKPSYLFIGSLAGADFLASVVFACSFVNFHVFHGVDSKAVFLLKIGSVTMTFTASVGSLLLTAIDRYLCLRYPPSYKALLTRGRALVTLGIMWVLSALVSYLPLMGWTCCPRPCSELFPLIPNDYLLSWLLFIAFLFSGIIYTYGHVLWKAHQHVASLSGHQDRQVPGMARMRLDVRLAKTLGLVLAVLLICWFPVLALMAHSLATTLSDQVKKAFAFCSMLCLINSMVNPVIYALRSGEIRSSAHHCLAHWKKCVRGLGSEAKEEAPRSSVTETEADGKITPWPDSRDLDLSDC

Ki: > 5 µM
Compound: O=c1c2cnn(-c3ccccc3)c2nc(-c2ccccc2F)n1-c1ccc(Br)cc1 [Compound 19, 5-(4-Bromo-phenyl)-6-(2-fluoro-phenyl)-1-phenyl-1,5-dihydro-pyrazolo[3,4-d]pyrimidin-4-one]
